In patent US20180185347A1, “TETRAHYDROCYCLOPENTA[B]INDOLE COMPOUNDS AND PHOSPHODIESTERASE INHIBITORS FOR THE TREATMENT OF THE SIGNS AND SYMPTOMS OF BHP” (Transition Therapeutics (Ireland 2) Limited, priority 2016, published 2018):
“Also recorded” adds a separate entry of the source.

Columns and labels:
[1] = biological target: T1, 17-beta-Hydroxysteroid Dehydrogenase Type 2 (Homo sapiens, UniProt P37059); assay: Metabolism by 17-beta-HSD type 2; assay type: in vitro ADME
T1 sequence (P37059 1-387): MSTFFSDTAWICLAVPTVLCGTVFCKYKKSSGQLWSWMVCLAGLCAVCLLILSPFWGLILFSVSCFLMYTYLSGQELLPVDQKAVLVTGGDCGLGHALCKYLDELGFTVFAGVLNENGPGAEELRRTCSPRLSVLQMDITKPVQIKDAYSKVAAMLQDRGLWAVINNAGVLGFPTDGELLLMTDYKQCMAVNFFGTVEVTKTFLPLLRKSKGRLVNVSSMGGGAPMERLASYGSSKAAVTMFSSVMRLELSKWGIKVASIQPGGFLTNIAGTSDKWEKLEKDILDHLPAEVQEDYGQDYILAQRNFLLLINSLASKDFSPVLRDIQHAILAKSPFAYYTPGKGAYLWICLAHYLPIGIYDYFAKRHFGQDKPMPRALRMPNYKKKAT

[2] = QT / ECG assessment in clinical studies; assay type: in vivo, human; conditions: Study GPEC
[3] = Clinical body composition and muscle power; assay type: in vivo, human
Source text: The Phase 2 Study for ED also included exploratory measures for lower extremity muscle strength and power, LBM and fat mass. […] The results are illustrated in FIGS. 12, 13, and 14.

PSA levels [4] = conditions: healthy volunteers, any time point or dose, data of WO 2016040234; cited from earlier work
LnCAP cells = assay: LnCAP gene expression; assay type: cell-based; conditions: Homo sapiens, read-out: LnCAP Gene Expression EC50 (nM) AR
rats = assay: Rat toxicology program: prostate weight and atrophy; assay type: in vivo; design: key: “”: no effect observed
orchidectomized rats [5] = assay: Levator ani / bulbocavernous muscle weight in delayed ORX rat model; assay type: in vivo
Source text: Results are plotted as means±SE.
Following the androgen deficiency in the ORX model, the Levator ani- and bulbocavernous muscle weights decreased in size.

Rat bioavailability = assay type: in vivo
orchidectomized rats [6] = assay: Testosterone induced prostate / seminal vesicle growth in delayed ORX rat model; assay type: in vivo
Source text: (§1) Orchidectomized (ORX) and sham-operated Wistar male rats were used (orchidectomized at 8 weeks of age and allowed to waste for 4 weeks). […] Rats were randomized and placed into treatment groups (n=6) based on body weight. Route of administration for all groups except testosterone enanthate (TE was given sub-cutaneously) was oral. At the end of 2 weeks of daily rats were euthanized, weighed & tissue harvested. Levator ani, prostates, and seminal vesicles were collected from each animal. Results are plotted as means±SE.

[7] = biological target: T2, serum hormone binding globulin (Homo sapiens, UniProt P04278); assay: Affinity to serum hormone binding globulin; conditions: at 10 μM
T2 sequence (P04278 30-402): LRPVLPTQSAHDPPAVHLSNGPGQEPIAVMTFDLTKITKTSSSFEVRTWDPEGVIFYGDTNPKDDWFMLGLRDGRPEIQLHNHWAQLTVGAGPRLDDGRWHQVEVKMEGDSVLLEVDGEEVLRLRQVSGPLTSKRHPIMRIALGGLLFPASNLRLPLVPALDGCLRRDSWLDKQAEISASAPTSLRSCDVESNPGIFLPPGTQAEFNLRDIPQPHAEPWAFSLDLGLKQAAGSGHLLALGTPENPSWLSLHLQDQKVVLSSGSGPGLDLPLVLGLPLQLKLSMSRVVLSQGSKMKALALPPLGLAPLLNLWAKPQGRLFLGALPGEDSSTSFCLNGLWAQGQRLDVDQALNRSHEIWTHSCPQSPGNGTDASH

PSA levels [8] = assay: PSA in ED patients failing tadalafil (Study GPEC); assay type: in vivo, human; conditions: for PSA levels: ED patients, alone or with tadalafil, PSA about 2.0 ng/ml or more
Source text: The results of this study are illustrated in FIG. 7. […] (see FIG. 8 and FIG. 9).

orchidectomized rats [9] = assay: Prostate and seminal vesicle weight in delayed ORX rat model (SV/Prostate risk); conditions: for prostate or seminal vesical weights: delayed ORX rats, 2 or 8 weeks, doses up to 20-30 mg/kg
Source text: as §1

Dog bioavailability = assay type: in vivo
[10] = Study GPEC, 12 weeks, 5 mg + 5 mg tadalafil compared with 10 mg tadalafil

Compound: CC(C)OC(=O)N[C@H]1Cc2c(n(Cc3ccccn3)c3ccc(C#N)cc23)C1 [compound of Formula II, (S)-(7-cyano-4-pyridin-2-ylmethyl-1,2,3,4-tetrahydro-cyclopenta[b]indol-2-yl)-carbamic acid isopropyl ester]
- metabolism by 17-beta-Hydroxysteroid Dehydrogenase Type 2 class of enzymes [1]: not metabolized
- ECG data [2]: did not show evidence of clinically meaningful changes
- LBM and calf area (by CT) ([3]; Study GPBC, healthy subjects, 28 days): clinically and statistically significant increases
- fat body mass and LBM [3, 10]: reduction of fat body mass and an increase (improvement) of LBM
- lower extremity muscle power (stair climb) [3, 10]: increased (improved)
- lean body mass ([3]; clinical studies in patients with androgen deficiency): clinically and statistically significant increases
- PSA levels, change from baseline vs placebo (PSA levels [4]): no significant changes from baseline
- EC50 (LnCAP cells): 1.64 nM
- Prostate weight (mean % decrease) (rats; 1+ months, 15 mg/kg/day): “”
- Prostate weight (mean % decrease) (rats; 1+ months, 150 mg/kg/day): “”
- Prostate weight (mean % decrease) (rats; 1+ months, 1500 mg/kg/day): “”
- Prostate weight (mean % decrease) (rats; 6+ months, 15 mg/kg/day): “”
- Prostate weight (mean % decrease) (rats; 6+ months, 150 mg/kg/day): ^↓30%
- Prostate weight (mean % decrease) (rats; 6+ months, 1500 mg/kg/day): ^↓34%
- Prostate weight (mean % decrease) (rats; Male Fertility (3 months), 3 mg/kg/day): “”
- Prostate weight (mean % decrease) (rats; Male Fertility (3 months), 30 mg/kg/day): ^↓23%
- Prostate weight (mean % decrease) (rats; Male Fertility (3 months), 1000 mg/kg/day): ^↓39%
- ED50 (orchidectomized rats [5]; Rattus norvegicus, read-out: ED50 for the levator ani muscle): 1 to 3 mg/kg
- Levator ani- and bulbocavernous muscle weights (orchidectomized rats [5]; delayed ORX rat, 8 weeks, 1 to 3 mg/kg/day): increased significantly
- bioavailability (Rat bioavailability; in vivo, read-out: Rat F %): 63%
- Rat F % (Rat bioavailability; listed as TT701): 63%
- prostate weights, Abs(Dif)-LSD vs ORX + TE control (orchidectomized rats [6]; 1 mg/kg/d + 3 mg/kg/d): −0.11
- seminal vesicle wet weights, Abs(Dif)-LSD vs ORX + TE control (orchidectomized rats [6]; 1 mg/kg/d + 3 mg/kg/d): −0.34
- prostate weights, Abs(Dif)-LSD vs ORX + TE control (orchidectomized rats [6]; 1 mg/kg/d + 10 mg/kg/d): 0.036
- seminal vesicle wet weights, Abs(Dif)-LSD vs ORX + TE control (orchidectomized rats [6]; 1 mg/kg/d + 10 mg/kg/d): 0.078
- prostate weights, Abs(Dif)-LSD vs ORX + TE control (orchidectomized rats [6]; 1 mg/kg/d + 30 mg/kg/d): 0.025
- prostate and seminal vesical weights normalized to body weight compared to TE alone (orchidectomized rats [6]; ORX rat, TE 1 mg/kg/d + 3, 10 and 30 mg/kg/d, 2 weeks): decreasing prostate weight and seminal vesical weights; also recorded: reduced testosterone induced effects on prostate size
- affinity to serum hormone binding globulin [7]: none detected
- PSA levels (PSA levels [8]; listed as OPK88004): significant reduction in PSA levels
- PSA levels (PSA levels [8]; listed as OPK-88004): decrease in PSA levels
- PSA (PSA levels [8]; Study GPEC, 1 mg and 5 mg for 12 weeks): not associated with increases in PSA
- changes in the prostate of orchidectomized rats (orchidectomized rats [9]; 30 mg/kg, the highest dose examined): did not induce changes
- prostate or seminal vesical weights (orchidectomized rats [9]): had no effect; also recorded: minimal accrual SV/Prostate risk
- prostate or seminal vesical weights (orchidectomized rats [9]; listed as TT701): minimal accrual SV/Prostate risk
- bioavailability (Dog bioavailability; in vivo, read-out: Dog F %): 58%
- Dog F % (Dog bioavailability; listed as TT701): 58%
